Molecular target: T1, human orexin type 2 receptor (hOX2R) (Homo sapiens, UniProt O43614)
T1 construct: the Orexin receptor cDNA was inserted into pcDNA3.1(+) plasmid vector; expressed in transfected cells
T1 sequence (O43614 1-444): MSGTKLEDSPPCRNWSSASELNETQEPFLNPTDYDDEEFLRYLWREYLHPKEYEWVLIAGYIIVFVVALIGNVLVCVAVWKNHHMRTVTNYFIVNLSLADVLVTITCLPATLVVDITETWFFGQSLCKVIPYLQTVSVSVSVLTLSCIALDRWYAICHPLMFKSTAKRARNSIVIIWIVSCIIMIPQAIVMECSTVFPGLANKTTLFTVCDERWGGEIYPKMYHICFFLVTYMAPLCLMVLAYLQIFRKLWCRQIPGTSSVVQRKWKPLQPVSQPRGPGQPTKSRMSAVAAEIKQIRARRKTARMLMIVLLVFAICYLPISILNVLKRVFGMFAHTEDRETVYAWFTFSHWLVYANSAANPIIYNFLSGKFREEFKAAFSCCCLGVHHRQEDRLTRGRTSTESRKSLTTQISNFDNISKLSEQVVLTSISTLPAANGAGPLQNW
Experiment: Orexin type 2 receptor agonist activity, intracellular Ca2+ (FLIPR TETRA) in CHO cells
Assay type: cell-based
Conditions: CHO cells expressing hOX2R; Ca2+ fluorescence area; 100% = 10 nM human orexin A; read-out: hOx2 pEC50 (converted)
Procedure: Stable cell line generation. Obtainment of cells stably expressing either human orexin type 2 or human orexin type 1 receptor: to obtain a stable cell line the Orexin receptor cDNA was inserted into pcDNA3.1(+) plasmid vector and clones identified by G418 drug resistance selection. […] A single clone for OX2R—CHO and OX1R—CHO were grown in bulk and frozen to generate a cell bank for routine screening.
Measurement of orexin type 2 receptor agonist activity. Chinese hamster ovary (CHO) cells expressing human orexin type 2 receptor (hOX2R) or human orexin type 1 receptor (hOX1R) were seeded in each well of 384 well black clear bottom plates (BD Flacon) at 10,000 cells per well and cultured for 24 hr in an Ham's F12 (Gibco) medium containing 10% fetal calf serum (Sigma Aldrich) under the conditions of 37° C., 5% CO2. After removal of the medium, 50 μl of assay buffer 1 (0.1% bovine serum albumin (Sigma Aldrich), 20 mM HEPES (Molecular Dimensions), […] probenecid (Sigma Aldrich), 1× Calcium 5 dye (Molecular Devices) in Hank's balanced salt solution (Invitrogen)) was added, and the cells were incubated for 60 min under the conditions of 37° C., 5% CO2. A test compound was dissolved in dimethyl sulfoxide (Sigma Aldrich) to 10 mM, and then diluted with assay buffer 2 (20 mM HEPES, Hank's balanced salt solution, 0.1% bovine serum albumin). For the reaction, a test compound solution (10 μl) was added using Fluorescent Imaging Plate Reader TETRA (FLIPR TETRA: manufactured by Molecular Devices), a fluorescence value (excitation wavelength 488 nm, measurement wavelength 570 nm) of each well was measured every one second for 2 min, and the agonist activity was determined using the area of the fluorescence value as an indicator of intracellular Ca^2+ concentration. The agonist activity of the test compound was calculated assuming that the fluorescence value of the well added with only the dilution buffer was 0% and the fluorescence value of the well added with 10 nM human orexin A (Tocris) buffer was 100%.
Values of hOx2 pEC50 in Table B are presented in ranges, in which 6.0≤“+”<7.0, 7.0≤“++”<8.0, 8.0≤“+++”<9.0, and 9.0≤“++++”<10.4.

| Structure (SMILES) | EC50 |
| --- | --- |
| CCS(=O)(=O)N[C@H]1[C@@H](F)CN2C(=O)N(C)CCOc3ccccc3-c3cccc(c3)C[C@@H]12 [Example 15, N-((4^2S,4^3R,4^4S)-4^4-fluoro-6-methyl-5-oxo-9-oxa-6-aza-4(2,1)-pyrrolidina-1(1,2),2(1,3)-dibenzenacyclononaphane-4^3-yl)ethanesulfonamide] | 1 to 10 nM |
| CN1CCOc2c(F)cccc2-c2cccc(c2)C[C@H]2[C@@H](NS(=O)(=O)C(F)F)C3(CC3)CN2C1=O [Example 34] | 1 to 10 nM |
| CN1CCOc2c(F)cc(F)cc2-c2cccc(c2F)C[C@H]2[C@@H](NS(=O)(=O)CF)C3(CC3)CN2C1=O [Example 40, 1-fluoro-N-((2′S,3′S)-2′,3′,5′-trifluoro-6′-methyl-5′-oxospiro[cyclopropane-1,4′-9-oxa-6-aza-4(2,1)-pyrrolidina-1(1,2),2(1,3)-dibenzenacyclononaphan]-3′-yl)methanesulfonamide] | 1 to 10 nM |
| O=C1CCOc2c(F)cccc2-c2cccc(c2)C[C@H]2[C@@H](NS(=O)(=O)C3(F)CC3)[C@@H](F)CCN12 [Example 46, N-((4^2S,4^3R,4^4S)-1^3,4^4-difluoro-5-oxo-8-oxa-4 (2,1)-piperidina-1 (1,2),2 (1,3)-dibenzenacyclooctaphane-4^3-yl)-1-fluorocyclopropane-1-sulfonamide] | 0.0398 to 1 nM |
| O=C1CCOc2ccccc2-c2cccc(c2)C[C@H]2[C@@H](NS(=O)(=O)C3(F)CC3)[C@@H](F)CCN12 [Example 45, 1-fluoro-N-((4^2S,4^3R,4^4S)-4^4-fluoro-5-oxo-8-oxa-4 (2,1)-piperidina-1 (1,2),2 (1,3)-dibenzenacyclooctaphane-4^3-yl)cyclopropane-1-sulfonamide] | 1 to 10 nM |
| CN1CCOc2ccccc2-c2cccc(c2F)C[C@H]2[C@@H](NS(=O)(=O)C(F)F)C3(CC3)CN2C1=O [Example 4, 1,1-difluoro-N-((2′S,3′S)-2′-fluoro-6′-methyl-5′-oxospiro[cyclopropane-1,4′-9-oxa-6-aza-4(2,1)-pyrrolidina-1(1,2),2(1,3)-dibenzenacyclononaphan]-3′-yl)methanesulfonamide] | 1 to 10 nM |
| O=C1N(CC(F)F)CCOc2c(F)cccc2-c2cccc(c2)C[C@H]2[C@@H](NS(=O)(=O)CF)C3(CC3)CN12 [Example 22, N-((2′S,3′S)-6′-(2,2-difluoro-ethyl)-3′-fluoro-5′-oxospiro[cyclopropane-1,4′-9-oxa-6-aza-4(2,1)-pyrrolidina-1(1,2),2(1,3)-dibenzenacyclononaphan]-3′-yl)-1-fluoromethanesulfonamide] | 1 to 10 nM |
| O=C1CCOc2ccccc2-c2cccc(c2)C[C@H]2[C@@H](NS(=O)(=O)C(F)F)CCCN12 [Example 26, 1,1-difluoro-N-((4^2S,4^3S)-5-oxo-8-oxa-4(2,1)-piperidina-1(1,2),2(1,3)-dibenzenacyclooctaphane-4^3-yl)methanesulfonamide] | 1 to 10 nM |
| CN1CCOc2ccccc2-c2cccc(c2F)C[C@H]2[C@@H](NS(=O)(=O)CF)CCCN2C1=O [Example 32, 1-fluoro-N-((4^2S,4^3S)-2^2-fluoro-6-methyl-5-oxo-9-oxa-6-aza-4(2,1)-piperidina-1(1,2),2(1,3)-dibenzenacyclononaphane-4^3-yl)methanesulfonamide] | 10 to 100 nM |
| CN1CCOc2ccccc2-c2cccc(c2F)C[C@H]2[C@@H](NS(=O)(=O)CF)C3(CC3)CN2C1=O [Example 25, 1-fluoro-N-((2′S,3′S)-2′-fluoro-6′-methyl-5′-oxospiro[cyclopropane-1,4′-9-oxa-6-aza-4(2,1)-pyrrolidina-1(1,2),2(1,3)-dibenzenacyclononaphan]-3′-yl)methanesulfonamide] | 1 to 10 nM |
| CN1CCOc2c(F)cccc2-c2cccc(c2)C[C@H]2[C@@H](NS(=O)(=O)CF)C3(CC3)CN2C1=O [Example 30, 1-fluoro-N-((2′S,3′S)-3′-fluoro-6′-methyl-5′-oxospiro[cyclopropane-1,4′-9-oxa-6-aza-4(2,1)-pyrrolidina-1(1,2),2(1,3)-dibenzenacyclononaphan]-3′-yl)methanesulfonamide] | 10 to 100 nM |
| O=C1CCOc2ccccc2-c2cccc(c2)C[C@H]2[C@@H](NS(=O)(=O)C3(F)CC3)CCCN12 [Example 50, 1-fluoro-N-((4^2S,4^3S)-5-oxo-8-oxa-4 (2,1)-piperidina-1 (1,2),2 (1,3)-dibenzenacyclooctaphane-4^3-yl)cyclopropane-1-sulfonamide] | 0.0398 to 1 nM |
| CN1CCOc2c(F)cc(F)cc2-c2cccc(c2F)C[C@H]2[C@@H](NS(=O)(=O)C(F)F)[C@@H](F)CN2C1=O [Example 11, 1,1-difluoro-N-((4^2S,4^3R,4^4S)-1^3,1^5,2^2,4^4-tetrafluoro-6-methyl-5-oxo-9-oxa-6-aza-4(2,1)-pyrrolidina-1(1,2),2(1,3)-dibenzenacyclononaphane-4^3-yl)methanesulfonamide] | 10 to 100 nM |
| CN1CCOc2c(F)cccc2-c2cccc(c2)C[C@H]2[C@@H](NS(=O)(=O)C(F)F)C(F)(F)CN2C1=O [Example 1, 1,1-difluoro-N-((4^2S,4^3R)-1^3,4^4,4^4-trifluoro-6-methyl-5-oxo-9-oxa-6-aza-4(2,1)-pyrrolidina-1(1,2),2(1,3)-dibenzenacyclononaphane-4^3-yl)methanesulfonamide] | 10 to 100 nM |
| CN1CCOc2c(F)cc(F)cc2-c2cccc(c2F)C[C@H]2[C@@H](NS(=O)(=O)C(F)F)C3(CC3)CN2C1=O [Example 39, 1,1-difluoro-N-((2′S,3′S)-2′,3′,5′-trifluoro-6′-methyl-5′-oxospiro[cyclopropane-1,4′-9-oxa-6-aza-4(2,1)-pyrrolidina-1(1,2),2(1,3)-dibenzenacyclononaphan]-3′-yl)methanesulfonamide] | 1 to 10 nM |
| CN1CCOc2c(F)cccc2-c2cccc(c2F)C[C@H]2[C@@H](NS(=O)(=O)CF)C3(CC3)CN2C1=O [Example 8, N-((2′S,3′S)-2′,3′-difluoro-6′-methyl-5′-oxospiro[cyclopropane-1,4′-9-oxa-6-aza-4(2,1)-pyrrolidina-1(1,2),2(1,3)-dibenzenacyclononaphan]-3′-yl)-1-fluoromethanesulfonamide] | 0.0398 to 1 nM |
| CC(C)S(=O)(=O)N[C@H]1CCCN2C(=O)CCOc3ccccc3-c3cccc(c3F)C[C@@H]12 [Example 3, N-((4^2S,4^3S)-22-fluoro-5-oxo-8-oxa-4(2,1)-piperidina-1(1,2),2(1,3)-dibenzenacyclooctaphane-4^3-yl)propane-2-sulfonamide] | 0.0398 to 1 nM |
| CC(C)(F)S(=O)(=O)N[C@H]1CCCN2C(=O)CCOc3ccccc3-c3cccc(c3F)C[C@@H]12 [Example 33, 2-fluoro-N-((4^2S,4^3S)-2^2-fluoro-5-oxo-8-oxa-4(2,1)-piperidina-1(1,2),2(1,3)-dibenzenacyclooctaphane-4^3-yl)propane-2-sulfonamide] | 1 to 10 nM |
| CN1CCOc2c(F)cccc2-c2cccc(c2)C[C@H]2[C@@H](NS(=O)(=O)CF)C(F)(F)CN2C1=O [Example 7, 1-fluoro-N-((4^2S,4^3R)-1^3,4^4,4^4-trifluoro-6-methyl-5-oxo-9-oxa-6-aza-4(2,1)-pyrrolidina-1(1,2),2(1,3)-dibenzenacyclononaphane-4^3-yl)methanesulfonamide] | 1 to 10 nM |
| CCS(=O)(=O)N[C@H]1[C@@H](F)CN2C(=O)N(C)CCOc3c(F)cccc3-c3cccc(c3F)C[C@@H]12 [Example 18, N-((4^2S,4^3R,4^4S)-1^3,2^2,4^4-trifluoro-6-methyl-5-oxo-9-oxa-6-aza-4(2,1)-pyrrolidina-1(1,2),2(1,3)-dibenzenacyclononaphane-4^3-yl)ethanesulfonamide] | 1 to 10 nM |
